Source: patent US20250262209A1, “TREATMENT OF GASTROINTESTINAL DISEASES” (Aclipse Two, Inc., priority 2022, published 2025)

Tests used:
Format in all cases: cell-based, human
[1] = system: monocytes from PBMC, M1-to-M2 macrophage repolarization; assay: M1-to-M2 macrophage repolarization assay; settings: cytokine analysis (MSD), day 14 supernatant
Text: The purpose of this study was to evaluate the effects of lobeglitazone and other thiazolidinediones on M1-to-M2 macrophage repolarization. The test articles and vehicles used in this study were lobeglitazone sulfate, pioglitazone HCl, and rosiglitazone.
M1-to-M2 macrophage repolarization assay timeline were as follows in Table 13.
Drug concentrations tested in the M1 differentiation assay are as in Table 14.
• (1) Isolate monocytes from PBMC using StemCell® monocyte isolation kit. • (2) Count cell and adjust the cell density to 0.5×10^6 cells/ml with fresh complete differentiation medium (add 10 μl M-CSF stock (100 μg/ml) 10 ml cell mixture to a final concentration of 50 ng/ml). • (3) Seed isolated monocyte 100 μL per well on 96-well plate. • (4) On day 4, add additional 100 μl medium containing M-CSF • (5) On day 6, add stimulator at 5× final concentration (200 μL medium in each well) to a final concentration of 50 ng/ml. • (6) On day 8, remove medium and replenish with 200 μL cytokine free medium, then add test compound (final concentration in μM) and incubate for 4 days. • (7) On day 12, add IL-4 and incubate for 2 days (add 50 μL of 100 ng/ml IL-4 to each well containing 200 μL medium to reach 20 ng/ml). • (8) On day 14, spin down the plates at 300×g for 5 min and collect the supernatant for cytokine quantification. • (9) M1 and M2 associated macrophage cytokines of interest are as follows in Table 15.
The cells are then collected for flow analysis of viability/CD11c/CD163/CD206.
Cell surface marker CD163, CD11c, and CD206 were applied to characterize M2 repolarization via flow cytometry. Controls included No stain and staining with all surface marker antibodies to confirm the optimization of gating strategy.

[2] = system: monocytes differentiated to M1 macrophage; assay: M1 macrophage differentiation assay; settings: TNF-α, IL-1b, IL-6, IL-12, IL-23 in supernatant on day 7 (MSD); concentrations of Table 9
Text: The purpose of this study was to evaluate the effects of lobeglitazone and other thiazolidinediones on M1 macrophage differentiation. The test articles and vehicles used in this study were lobeglitazone sulfate, pioglitazone HCl, and rosiglitazone.
M1 macrophage differentiation assay timeline was as follows in Table 8.
Drug concentrations tested in the M1 differentiation assay are as in Table 9.
• (1) Revive frozen monocytes. • (2) Count cells and adjust the cell density to 0.5×10^6 cells/ml with fresh complete differentiation medium (RPMI1640+10% FBS+1% PS plus GM-CSF or M-CSF at 50 ng/ml). • (3) Seed isolated monocyte 100 μL per well on 96-well plate. • (4) Add test articles as the plate map using D300e (final concentration in μM). • (5) Differentiate the monocyte to macrophage in the presence of GM-CSF to M1, or M-CSF to M2 for 5 days. • (6) On day 5, add cytokines at 2× final concentration. • (6a) Prepare medium containing GM-CSF for M1 and M-CSF for M2. • (6b) Add corresponding activator to reach 2× final working concentration: (i) IFNγ stock 0.2 mg/ml: add 2.5 μL stock into 5 ml complete differentiation medium for 100 ng/ml; (ii) LPS stock 1.0 mg/ml: dilute to 20 μg/ml by mixing 2 μL stock into 100 μl medium; then add 10 μl 20 μg/ml LPS to 5 ml complete differentiation medium for 40 ng/ml; (iii) IL-4 stock 0.1 mg/ml: dilute 2 μL stock into 5 ml complete differentiation medium for 40 ng/ml. • (6c) Add 100 μL cytokine containing differentiating medium to each well, and total volume of each well is 200 μL. • (6d) Add test compound again using D300e. Make sure to set the final volume as 200 μL. • (7) Incubate cytokine and test compound for 48 hours. • (8) On day 7, spin down the plates at 300×g for 5 min and collect the supernatant for cytokine quantification using MSD. • (9) M1 associated macrophage cytokines TNF-α, IL-1b, IL-6, IL-12, and IL-23 were quantified.

[3] = system: monocytes from PBMC differentiated into M2 macrophage; assay: M2 macrophage differentiation assay; settings: CD163, CD11c, CD206; donor 1 and 2
Text: The purpose of this study was to evaluate the effects of lobeglitazone and other thiazolidinediones on M2 macrophage differentiation. The test articles and vehicles used in this study were lobeglitazone sulfate, pioglitazone HCl, and rosiglitazone.
M2 macrophage differentiation assay timeline was as follows in Table 10.
• (1) Isolate monocytes from PBMC using StemCell® monocyte isolation kit • (2) Count cell and adjust the cell density to 0.5×10^6 cells/ml with fresh complete differentiation medium. Add 5 μL M-CSF stock ([…]) to each 5 ml cell mixture. • (3) Seed isolated monocyte 100 μL per well on 96-well plate. • (4) Add test articles as the plate map using D300e (final concentration in μM). • (5) Differentiate the monocyte to macrophage in the presence of M-CSF to […] for 4 days. • (6) On day 4, add additional medium containing M-CSF. • (7) Add test compounds using D300e (final volume=[…]). • (8) On day 6, add IL-4 at 5× final concentration (IL-4 stock 0.1 mg/ml: dilute 10 μl stock into 10 ml medium for 100 ng/ml. Add 50 μl 100 ng/ml IL-4 to each well containing 200 μL medium to reach 20 ng/ml). • (9) On day 8, spin down the plates at 300×g for 5 min and collect the supernatant for cytokine quantification using MSD. • (10) M2 associated macrophage cytokines of interest are listed below in Table 12.
• (11) Collect cells for flow analysis of viability/CD11c/CD163/CD206.
Flow cytometry and surface marker CD163, CD11c, and CD206 were applied to characterize M2 repolarization. No stain and all stain with surface marker antibody to confirm the optimization of gating strategy.

| SMILES | concentration showing remarkable promotion of MDC expression [1] | M1 macrophage cytokines expression [2] | concentration at which M2 repolarization was promoted (M2 macrophage surface markers, flow cytometry) [3] |
| --- | --- | --- | --- |
| CCc1ccc(CCOc2ccc(CC3SC(=O)NC3=O)cc2)nc1.Cl (racemic) [pioglitazone, (±)-5-[p-[2-(5-Ethyl-2-pyridyl)ethoxy]benzyl]-2,4-thiazolidinedione monohydrochloride] | 5 µM | promoted the M1 macrophage cytokines in a dose-dependent manner | ~10 µM |
| CN(CCOc1ccc(CC2SC(=O)NC2=O)cc1)c1ccccn1 (racemic) [rosiglitazone, (RS)-5-[4-(2-[methyl(pyridin-2-yl)amino]ethoxy)benzyl]thiazolidine-2,4-dione] | 6.4 µM | promoted the M1 macrophage cytokines in a dose-dependent manner | ~0.4 µM |
